For experiment [1], the target named is T1, E. coli threonine deaminase (ilvA), wild type, SEQ ID NO: 2 (Escherichia coli, UniProt P04968, A120R/A140R/G195C/G334V/V121L).
T1 construct: made in house; host or cells: E. coli (crude extract)
Briefly: Threonine deaminase steady state kinetics, E. coli wild type. The format is biochemical. The procedure: (§1) Before conducting further transformation experiments using the isolated ilvA alleles in transgenic plants, each allele was over-expressed in E. coli to determine its kinetic parameters. Kinetics data on threonine deaminases containing various mutations, and a comparison to data available for threonine deaminases from Arabidopsis, are provided in Table 4. The E. coli ilvA481 variants were subcloned into pSE380 (Invitrogen, Carlsbad, Calif.) and expression was induced with 0.2 mM IPTG at 37° C. for 3 hours. Expression of the E. coli alleles was high and fairly consistent as visualized by SDS-PAGE.
(§2) The effects of amino acid substitutions at Leu481 in ilvA were assessed by steady state kinetic analysis in the presence and absence of L-isoleucine. Threonine deaminase polypeptides for use in in vitro kinetics studies were extracted from E. coli cells in assay buffer containing 50 mM potassium phosphate (pH7.5), 1 mM dithiothreitol (DTT), and 0.5 mM ethylenediamine-tetraacetate. A continuous assay method was employed to monitor the formation of α-ketobutyrate directly at 230 nm (ε230 (pH7.5)=540 M^−1cm^−1 whereas threonine absorption was negligible (˜1%)). […] The kinetic parameters were determined by fitting the data points to the equations using GraFit 4.0 software (Erithacus Software, Surrey, UK). […]

The target of experiment [2] is T2, E. coli threonine deaminase (ilvA) variant L481F (ilvA466), SEQ ID NO: 4 (Escherichia coli, UniProt P04968, A120R/A140R/G195C/G334V/L481F/V121L).
T2 construct: made in house; host or cells: E. coli (pSE380, crude extract)
Briefly: biochemical. The format is biochemical. The procedure: as §1, §2

For experiment [3], the target named is T3, E. coli threonine deaminase (ilvA) variant L481P, SEQ ID NO: 6 (Escherichia coli, UniProt P04968, A120R/A140R/G195C/G334V/L481P/V121L).
T3 construct: made in house; host or cells: E. coli (pSE380, crude extract)
The experiment in a line: Threonine deaminase steady state kinetics, L481P. The format is biochemical. The procedure: as §1, §2

Experiment [4] deals with T4, E. coli threonine deaminase (ilvA) variant L481E, SEQ ID NO: 7 (Escherichia coli, UniProt P04968, A120R/A140R/G195C/G334V/L481E/V121L).
T4 construct: made in house; host or cells: E. coli (pSE380, crude extract)
Briefly: Threonine deaminase steady state kinetics, L481E. The format is biochemical. The procedure: as §1, §2

Experiment [5] has as its target T5, E. coli threonine deaminase (ilvA) variant L481Q, SEQ ID NO: 9 (Escherichia coli, UniProt P04968, A120R/A140R/G195C/G334V/L481Q/V121L).
T5 construct: made in house; host or cells: E. coli (pSE380, crude extract)
T5 sequence (P04968 1-514 A120R/V121L/A140R/G195C/G334V/L481Q): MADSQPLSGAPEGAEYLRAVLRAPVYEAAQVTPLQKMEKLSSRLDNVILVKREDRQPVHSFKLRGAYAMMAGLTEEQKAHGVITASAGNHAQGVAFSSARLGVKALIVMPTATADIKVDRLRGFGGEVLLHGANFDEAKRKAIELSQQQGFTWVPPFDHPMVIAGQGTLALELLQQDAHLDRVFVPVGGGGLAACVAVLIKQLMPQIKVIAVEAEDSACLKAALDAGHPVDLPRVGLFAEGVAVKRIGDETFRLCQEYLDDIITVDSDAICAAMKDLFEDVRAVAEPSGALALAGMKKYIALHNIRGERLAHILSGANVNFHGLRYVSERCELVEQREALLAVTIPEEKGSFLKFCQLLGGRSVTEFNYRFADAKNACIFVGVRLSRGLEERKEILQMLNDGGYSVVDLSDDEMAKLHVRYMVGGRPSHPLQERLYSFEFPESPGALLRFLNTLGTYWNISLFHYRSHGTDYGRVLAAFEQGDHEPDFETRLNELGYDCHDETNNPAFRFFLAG
Briefly: Threonine deaminase steady state kinetics, L481Q. The experiment is classed as biochemical. The procedure:
as §1
(§3) The effects of amino acid substitutions at Leu481 in ilvA were assessed by steady state kinetic analysis in the presence and absence of L-isoleucine. Threonine deaminase polypeptides for use in in vitro kinetics studies were extracted from E. coli cells in assay buffer containing 50 mM potassium phosphate (pH7.5), 1 mM dithiothreitol (DTT), and 0.5 mM ethylenediamine-tetraacetate. A continuous assay method was employed to monitor the formation of α-ketobutyrate directly at 230 nm (ε230 (pH7.5)=540 M^−1cm^−1 whereas threonine absorption was negligible (˜1%)). The assay was initiated by adding 20 μl of crude extract diluted 1:20 v/v to the assay vessel containing L-threonine (between 2.5 mM and 50 mM) in a final volume of 1 mL. For L-isoleucine inhibition, L-isoleucine was added between 0 mM and 20 mM. The kinetic parameters were determined by fitting the data points to the equations using GraFit 4.0 software (Erithacus Software, Surrey, UK). For comparison, the kcat values of L481 alleles were normalized to the kcat value for the wild type IlvA enzyme. Enzymes represented in FIG. 7 are: wild type E. coli threonine deaminase (circles), L481Y TD enzyme (diamonds), L481F TD enzyme (triangles), and the L481T TD enzyme (squares). Table 4 also summarizes the kinetic parameters of the variant threonine deaminase enzymes produced by the various E. coli ilvA alleles.

Experiment [6] deals with T6, E. coli threonine deaminase (ilvA) variant L481I, SEQ ID NO: 10 (Escherichia coli, UniProt P04968, A120R/A140R/G195C/G334V/L481I/V121L).
T6 construct: made in house; host or cells: E. coli (pSE380, crude extract)
T6 sequence (P04968 1-514 A120R/V121L/A140R/G195C/G334V/L481I): T5 sequence (P04968 1-514 A120R/V121L/A140R/G195C/G334V/L481Q) with Q481I
The experiment in a line: Threonine deaminase steady state kinetics, L481I. The experiment is classed as biochemical. The procedure: as §1, §3

The target of experiment [7] is Arabidopsis threonine deaminase, wild type. The note with it: wild type Arabidopsis TD, comparison data, cited from earlier work.

SMILES strings stand for the structures. Residue numbers refer to the chain shown, from its start.

T3 sequence (P04968 whole entry A120R/V121L/A140R/G195C/G334V/L481P): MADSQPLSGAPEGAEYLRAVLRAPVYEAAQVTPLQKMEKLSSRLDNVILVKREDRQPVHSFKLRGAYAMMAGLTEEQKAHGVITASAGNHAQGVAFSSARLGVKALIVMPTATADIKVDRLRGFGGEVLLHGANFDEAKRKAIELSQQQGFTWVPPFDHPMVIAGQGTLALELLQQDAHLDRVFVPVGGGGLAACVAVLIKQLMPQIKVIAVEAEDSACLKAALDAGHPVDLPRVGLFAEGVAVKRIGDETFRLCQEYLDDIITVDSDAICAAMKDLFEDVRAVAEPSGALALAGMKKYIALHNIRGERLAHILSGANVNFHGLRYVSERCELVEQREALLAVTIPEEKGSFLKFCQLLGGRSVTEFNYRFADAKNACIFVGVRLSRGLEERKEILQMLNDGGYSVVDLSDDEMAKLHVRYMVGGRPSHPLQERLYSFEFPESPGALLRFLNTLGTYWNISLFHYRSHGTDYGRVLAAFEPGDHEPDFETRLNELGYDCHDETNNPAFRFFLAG
T1 sequence (P04968 whole entry A120R/V121L/A140R/G195C/G334V): as the sequence (P04968 whole entry A120R/V121L/A140R/G195C/G334V/L481P) above, with P481L counted along it
T2 sequence (P04968 whole entry A120R/V121L/A140R/G195C/G334V/L481F): as the sequence (P04968 whole entry A120R/V121L/A140R/G195C/G334V/L481P) above, with P481F counted along it
T4 sequence (P04968 whole entry A120R/V121L/A140R/G195C/G334V/L481E): as the sequence (P04968 whole entry A120R/V121L/A140R/G195C/G334V/L481P) above, with P481E counted along it

In general, IC50 refers to the point on the concentration scale where inhibition reaches its midpoint. Turning to `CC[C@H](C)[C@H](N)C(=O)O` [L-isoleucine], the IC50 was 56 µM in experiment [1]; 800 µM in experiment [2]; 650 µM in experiment [3]; 445 µM in experiment [4]; 188 µM in experiment [5]; 134 µM in experiment [6]. Besides, the IC50 in experiment [7] was 10 µM.

For orientation: Km means the substrate concentration at which the rate is half of its maximum. With `C[C@@H](O)[C@H](N)C(=O)O` [L-threonine], the Km in experiment [1] (read-out: Km^Thr, E. coli wt, pMON25858, pH 7.5, L-threonine 2.5-50 mM) was found to be 8.3 mM; in experiment [2] (read-out: Km^Thr, L481F, pMON25857, pH 7.5, L-threonine 2.5-50 mM), 4 mM; in experiment [3] (read-out: Km^Thr, L481P, pMON25864, pH 7.5, L-threonine 2.5-50 mM), 8.8 mM; in experiment [4] (read-out: Km^Thr, L481E, pMON25860, pH 7.5, L-threonine 2.5-50 mM), 3.9 mM; in experiment [5] (read-out: Km^Thr, L481Q, pMON25865, pH 7.5, L-threonine 2.5-50 mM) it was 8.8 mM; in experiment [6] (read-out: Km^Thr, L481I, pMON25861, pH 7.5, L-threonine 2.5-50 mM) it was 7.6 mM. Besides, the Km in experiment [7] (read-out: Km^Thr) is 2.8 mM. Moreover, the “Hill coefficient (n), substrate binding” value in experiment [5] (L481Q, pMON25865, positive cooperativity) was 1.6; in experiment [6] (L481I, pMON25861, positive cooperativity), 1.6.

Values taken from US20050289668A1, “Plants with increased levels of one or more amino acids” (priority 2003, published 2005).
